Laboratory results from publication PMC6136712, “Ex vivo drug sensitivity testing as a means for drug repurposing in esophageal adenocarcinoma” (PLoS ONE, 2018).
Where a name gives a salt, the structure may show the parent alone.

How the values were obtained:
Type in all cases: cell-based, human
[1] = system: normal esophageal epithelium cell line EACN42; test: FDA library drug sensitivity testing (CellTiter-Glo, 72 h), normal control cells; set-up: key to DSS: modified drug sensitivity score (DSSmod) from dose-response curve fit
In short: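 HPV E6-E7-immortalized normal human esophageal epithelial cells, 1000 per well, exposed 72 h at 37 °C to drugs in duplicate from 10μM top concentration across a 20,000-fold range. Viability by ATP bioluminescence; DMSO wells as negative control; curves scored with modified drug sensitivity score (DSSmod).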

Flo-1 cells = test: FDA library drug sensitivity testing (CellTiter-Glo, 72 h); conditions: Flo-1; sDSSmod = DSSmod (patient cells) - DSSmod (normal cells)
Source text: (§1) OE33, OE19 and SKGT2 human esophageal adenocarcinoma cell lines were obtained from the European Collection of Cell Culture ([…]). Flo1, EAC42 and EAC47 cells were established in the Capobianco Laboratory. EAC42 and EAC47 human esophageal adenocarcinoma cell lines are derived from patients undergoing surgery at the Miller School of Medicine, University of Miami. The Capobianco laboratory obtained written informed consent from all patients and approval from the Institutional Research Ethics Committee.
(§2) Drug sensitivity testing (DST) was performed as described previously. […] Individual drugs were dissolved in 100% DMSO and tested in duplicates starting at a maximal test concentration of 10μM then over a 20,000-fold concentration range to generate dose response curves. Wells with assay buffer containing DMSO served as negative controls. 1000 exponentially growing cells were seeded per well in 384-well micro-titer plates and incubated in the presence of compounds in a humidified environment at 37°C and 5% CO2. After 72 hours of treatment, cell viability was assessed by measuring ATP levels via bioluminescence (CellTiter-Glo, Promega) according to manufactures recommendations. Interpretation of curve parameters was performed according to the modified drug sensitivity scoring (DSSmod) function developed by Swords et al. As a final step, the selective DSSmod (sDSSmod) for each drug in each patient screen is calculated according to the formula sDSSmod = DSSmod (patient cells)—DSSmod (normal cells). Given in this way, the sDSSmod incorporated information on each drug’s potency, efficacy, effect range and therapeutic index, making it possible to prioritize compounds over multiple parameters using a single numerical metric. In addition, this methodology allows us to rank compounds by cancer-selective efficacy for each individual patient. […] All calculations and scoring routines are implemented in MatLab and additional curve fitting and statistical analyses are performed in GraphPad prism.

OE33 cells = test: as above; conditions: OE33; sDSSmod = DSSmod (patient cells) - DSSmod (normal cells)
Source text: as §1
as §2, with “As a final step, the selective DSSmod (sDSSmod) for each drug in each patient screen is calculated according to the formula sDSSmod = DSSmod (patient cells)—DSSmod (normal cells).” left out, “metric.” for “metric. In addition, this methodology allows us to rank compounds by cancer-selective efficacy for each individual patient.”

OE19 cells = test: as above; conditions: sDSSmod = DSSmod (patient cells) - DSSmod (normal cells)
Source text: as §1
as §2, with “As a final step, the selective DSSmod (sDSSmod) for each drug in each patient screen is calculated according to the formula sDSSmod = DSSmod (patient cells)—DSSmod (normal cells).” left out, “metric.” for “metric. In addition, this methodology allows us to rank compounds by cancer-selective efficacy for each individual patient.”

SK-GT2 cells = test: as above; conditions: SK-GT2; sDSSmod = DSSmod (patient cells) - DSSmod (normal cells)
Source text: as §1
as §2, with “As a final step, the selective DSSmod (sDSSmod) for each drug in each patient screen is calculated according to the formula sDSSmod = DSSmod (patient cells)—DSSmod (normal cells).” left out, “metric.” for “metric. In addition, this methodology allows us to rank compounds by cancer-selective efficacy for each individual patient.”

EAC47 cells = test: as above; conditions: EAC47; sDSSmod = DSSmod (patient cells) - DSSmod (normal cells)
Source text: as §1
as §2, with “As a final step, the selective DSSmod (sDSSmod) for each drug in each patient screen is calculated according to the formula sDSSmod = DSSmod (patient cells)—DSSmod (normal cells).” left out, “metric.” for “metric. In addition, this methodology allows us to rank compounds by cancer-selective efficacy for each individual patient.”

EAC42 cells = test: as above; conditions: EAC42; sDSSmod = DSSmod (patient cells) - DSSmod (normal cells)
Source text: as §1
as §2, with “As a final step, the selective DSSmod (sDSSmod) for each drug in each patient screen is calculated according to the formula sDSSmod = DSSmod (patient cells)—DSSmod (normal cells).” left out, “metric.” for “metric. In addition, this methodology allows us to rank compounds by cancer-selective efficacy for each individual patient.”

[2] = drug sensitivity score, EACN42 normal esophageal cells, 72 h
[3] = Homo sapiens, 72 h, EACN42 normal esophageal cells, cell viability (ATP), max test concentration 10μM
[4] = Homo sapiens; EACN42 normal esophageal cells, 72 h, cell viability (ATP), max test concentration 10μM

| SMILES | DSS [1, 2] | sDSSmod (Flo-1 cells) | sDSSmod (OE33 cells) | EC50 [1, 3] [nM] | sDSSmod (OE19 cells) | sDSSmod (SK-GT2 cells) | sDSSmod (EAC47 cells) | sDSSmod (EAC42 cells) | EC50 ([1]; EACN42 normal esophageal cells, 72 h, cell viability (ATP), max test concentration 10μM) [nM] | EC50 [1, 4] [nM] |
| --- | --- | --- | --- | --- | --- | --- | --- | --- | --- | --- |
| Cc1ccc(Nc2nccc(N(C)c3ccc4c(C)n(C)nc4c3)n2)cc1S(N)(=O)=O.Cl [Pazopanib HCl] | 0.07 | 8.16 | 11.37 | – | – | – | – | – | – | – |
| Cc1cn(-c2cc(NC(=O)c3ccc(C)c(Nc4nccc(-c5cccnc5)n4)c3)cc(C(F)(F)F)c2)cn1 [Nilotinib] | 0.43 | 37.8 | 32.09 | > 10000 | 18.74 | 27.22 | – | – | – | – |
| CCc1c2c(nc3ccc(OC(=O)N4CCC(N5CCCCC5)CC4)cc13)-c1cc3c(c(=O)n1C2)COC(=O)[C@]3(O)CC [Irinotecan] | 6.99 | – | 5.246 | 5110 | -6.34 | -5.574 | -5.5855 | – | – | – |
| Cc1[nH]c2ccccc2c1CCNCc1ccc(/C=C/C(=O)NO)cc1 [Panobinostat] | 40.42 | -40.42 | -40.4215 | 90 | -40.4215 | -40.4215 | – | 7.607 | – | – |
| CCc1c2c(nc3ccc(OC(=O)N4CCC(N5CCCCC5)CC4)cc13)-c1cc3c(c(=O)n1C2)COC(=O)[C@]3(O)CC.Cl.O.O.O [Irinotecan HCl Trihydrate] | 13.38 | – | 12.07 | – | -12.0524 | -7.5553 | -6.3823 | -6.563 | 1570 | – |
| [Na+].[Na+].[Na+].[O]=[V]([O-])([O-])[O-] [Sodium orthovanadate] | 0 | 13.33 | – | – | 5.913 | 23.66 | – | – | – | – |
| CC(C)C[C@H](NC(=O)[C@H](CCc1ccccc1)NC(=O)CN1CCOCC1)C(=O)N[C@@H](Cc1ccccc1)C(=O)N[C@@H](CC(C)C)C(=O)[C@@]1(C)CO1 [Cartilzomib, Carfilzomib] | 44.43 | -44.35 | -43.92 | 80 | -42.8127 | -44.432 | – | – | – | – |
| CCC(C)(C)C(=O)O[C@H]1C[C@@H](C)C=C2C=C[C@H](C)[C@H](CC[C@@H]3C[C@@H](O)CC(=O)O3)[C@H]21 [Simvastatin] | 5.66 | – | 26.15 | 3350 | -5.647 | -5.66 | -5.66 | -5.363 | – | – |
| Cc1ccc(C(=O)Nc2ccc(CN3CCN(C)CC3)c(C(F)(F)F)c2)cc1C#Cc1cnc2cccnn12 [Ponatinib] | 11.77 | – | -6.155 | – | -11.756 | -11.7711 | -11.7731 | -11.7731 | – | 2810 |
| C/C=C(\C)C(=O)N[C@@H](c1ccccc1)[C@@H](O)C(=O)O[C@H]1C[C@@]2(O)[C@@H](OC(=O)c3ccccc3)[C@@H]3[C@]4(OC(C)=O)CO[C@@H]4C[C@H](O)[C@@]3(C)C(=O)[C@H](OC(C)=O)C(=C1C)C2(C)C [Cephalomannine] | 23.35 | 12.79 | 5.452 | – | – | 21.46 | -8.868 | -5.552 | – | 162 |
| O=C1c2c(O)ccc(O)c2C(=O)c2c(NCCNCCO)ccc(NCCNCCO)c21 [Mitoxantrone Hydrochloride] | 17.16 | 17.0838 | 9.033 | 1670 | – | – | 5.242 | 6.699 | – | – |
| CC(=O)O[C@@]12CO[C@@H]1C[C@H](O)[C@@]1(C)C(=O)[C@H](O)C3=C(C)[C@@H](OC(=O)[C@H](O)[C@@H](NC(=O)OC(C)(C)C)c4ccccc4)C[C@@](O)([C@@H](OC(=O)c4ccccc4)[C@H]21)C3(C)C [Docetaxel] | 40.14 | 8.04 | – | 3000 | – | 16.5247 | -23.2183 | -15.5932 | – | – |
| CC[C@]1(O)C[C@H]2CN(CCc3c([nH]c4ccccc34)[C@@](C(=O)OC)(c3cc4c(cc3OC)N(C=O)[C@H]3[C@@](O)(C(=O)OC)[C@H](OC(C)=O)[C@]5(CC)C=CCN6CC[C@]43[C@@H]65)C2)C1 [Vincristine] | – | 6.31 | -8.234 | 30 | – | -7.21 | -16.3015 | -7.92 | – | – |
| O=P(O)(O)C(O)(Cn1ccnc1)P(=O)(O)O [Zoledronic Acid] | 0 | 5.26 | – | – | – | – | 6.526 | 9.833 | – | – |
| COc1cccc2c1C(=O)c1c(O)c3c(c(O)c1C2=O)C[C@@](O)(C(C)=O)C[C@@H]3O[C@H]1C[C@H](N)[C@H](O)[C@H](C)O1 [Daunorubicin HCl] | 21.12 | 5.15 | – | – | -13.6679 | – | – | – | – | 980 |
| CC(=O)O[C@H]1C(=O)[C@@]2(C)[C@H]([C@H](OC(=O)c3ccccc3)[C@]3(O)C[C@H](OC(=O)[C@H](O)[C@@H](NC(=O)c4ccccc4)c4ccccc4)C(C)=C1C3(C)C)[C@]1(OC(C)=O)CO[C@@H]1C[C@@H]2O [Paclitaxel] | 34.94 | 9.33 | 7.642 | 10 | – | 12.8 | -17.6632 | -12.1 | – | – |
| COc1c(C)c2c(c(O)c1C/C=C(\C)CCC(=O)O)C(=O)OC2 [Mycophenolic] | 2.17 | 10.92 | 16.23 | – | – | – | 5.9818 | 8.479 | – | – |
| Nc1nc(F)nc2c1ncn2[C@@H]1O[C@H](CO)[C@@H](O)[C@@H]1O [Fludarabine] | 42.19 | – | -9.248 | 70 | -20.7262 | -12.4173 | -42.19 | -42.0707 | – | – |
| COc1cccc2c1C(=O)c1c(O)c3c(c(O)c1C2=O)C[C@@](O)(C(=O)CO)C[C@@H]3O[C@H]1C[C@H](N)[C@H](O)[C@H](C)O1 [Doxorubicin] | 15.67 | 7.66 | – | 1420 | -12.9053 | -8.365 | – | – | – | – |
| COc1cc([C@@H]2c3cc4c(cc3[C@@H](O[C@@H]3O[C@@H]5CO[C@@H](c6cccs6)O[C@H]5[C@H](O)[C@H]3O)[C@H]3COC(=O)[C@H]23)OCO4)cc(OC)c1O [Teniposide] | 6.79 | 10.22 | 39.45 | 5170 | – | – | – | – | – | – |
| COc1c(C)c2c(c(O)c1C/C=C(\C)CCC(=O)OCCN1CCOCC1)C(=O)OC2 [Mycophenolate mofetil] | 2.66 | 5.44 | 11.03 | 2180 | – | – | – | 6.417 | – | – |
| Nc1nc(Cl)nc2c1ncn2[C@@H]1O[C@H](CO)[C@@H](O)[C@@H]1F [Clofarabine] | 19.89 | – | 16.0076 | 70 | -19.554 | -9.559 | -10.1317 | -8.024 | – | – |
